{"source": "patent US20110269625A1", "about": "“Synergistic insecticidal mixtures” (Bayer CropScience AG, priority 2008, published 2011)", "assay_type_in_all_cases": "in vivo", "key": {"[1]": {"system": "green peach aphid (Myzus persicae)", "experiment": "Myzus persicae test (spray treatment of infested cabbage leaves)", "source_text": "(§1) The expected action for a given combination of two active ingredients can be calculated according to S. R. Colby, Weeds 15 (1967), 20-22) as follows:\n(§2) • X is the kill rate, expressed in % of the untreated control, using the active ingredient A at an application rate of m g/ha or in a concentration of m ppm, • Y is the kill rate, expressed in % of the untreated control, using the active ingredient B at an application rate of n g/ha or in a concentration of n ppm, • E is the kill rate, expressed in % of the untreated control, using the active ingredients A and B at application rates of m and n g/ha or in a concentration of m and n ppm, then is\n(§3) If the actual insecticidal kill rate is greater than that calculated, the kill rate of the combination is superadditive, i.e. there is a synergistic effect. In this case, the actually observed kill rate must be greater than the value calculated from the above formula for the expected kill rate (E).\nSolvent: 7 parts by weight of dimethylformamide Emulsifier: 2 parts by weight of alkylaryl polyglycol ether\n(§4) To produce an appropriate active ingredient formulation, 1 part by weight of active ingredient is mixed with the stated amounts of solvent and emulsifier, and the concentrate is diluted with emulsifier-containing water to the desired concentration.\nCabbage leaves (Brassica oleracea) severely infested by the green peach aphid (Myzus persicae) are treated by spraying with the active ingredient formulation in the desired concentration.\n(§5) After the desired time, the kill rate in % is determined 100% means that all of the aphids have been killed; 0% means that none of the aphids have been killed. The kill rates determined are entered into Colby's formula."}, "[2]": {"system": "larvae of the mustard beetle (Phaedon cochleariae)", "experiment": "Phaedon cochleariae larvae test (sprayed cabbage leaves populated with larvae)", "details": "4 ppm, spray", "source_text": "as §1, §2, §3\nSolvent: 7 parts by weight of dimethylformamide Emulsifier: 2 parts by weight of alkyl aryl polyglycol ether\nas §4\nCabbage leaves (Brassica oleracea) are treated by spraying with the active ingredient formulation of the desired concentration and populated with larvae of the mustard beetle (Phaedon cochleariae) while the leaves are still moist.\nAfter the desired time, the kill rate in % is determined 100% means that all beetle larvae have been killed; 0% means that none of the beetle larvae have been killed. The kill rates determined are entered into Colby's formula."}, "[3]": {"system": "cotton aphid (Aphis gossypii)", "experiment": "Aphis gossypii test (spray treatment of infested cotton plants)", "source_text": "as §1, §2, §3\nSolvent: 7 parts by weight of dimethylformamide Emulsifier: 2 parts by weight of alkylaryl polyglycol ether […]\nas §5"}}}
{"smiles": "C/C(=N\\C#N)N(C)Cc1ccc(Cl)nc1", "note": "[acetamiprid]", "values": [{"measurement": "Kill rate in % after 6 days", "setting": "[1]; 0.8 ppm", "result": 0, "unit": "%"}, {"measurement": "Kill rate in % after 6 days", "setting": "[2]", "result": 0, "unit": "%"}]}
{"smiles": "N#C/N=C1\\SCCN1Cc1ccc(Cl)nc1", "note": "[thiacloprid]", "values": [{"measurement": "Kill rate in % after 6 days", "setting": "[3]; 0.8 ppm", "result": 25, "unit": "%"}, {"measurement": "Kill rate in % after 1 d", "setting": "[1]; 0.8 ppm", "result": 25, "unit": "%"}, {"measurement": "Kill rate in % after 6 days", "setting": "[2]", "result": 0, "unit": "%"}]}
{"smiles": "CC1(C)[C@H](C=C(Cl)Cl)[C@H]1C(=O)OCc1c(F)c(F)cc(F)c1F", "note": "[transfluthrin]", "values": [{"measurement": "Kill rate in % after 6 days", "setting": "[3]; 0.16 ppm", "result": 0, "unit": "%"}, {"measurement": "Kill rate in % after 1 d", "setting": "[1]; 0.16 ppm", "result": 0, "unit": "%"}, {"measurement": "Kill rate in % after 6 days", "setting": "[1]; 0.8 ppm", "result": 0, "unit": "%"}, {"measurement": "Kill rate in % after 6 days", "setting": "[2]", "result": 0, "unit": "%"}]}
